Compound: O=C(Nc1cccc(C(F)(F)F)c1)Nc1cc(S(=O)(=O)NC2CC2)ccc1-c1ccsc1 [AGI-6780]
Test: relative viability (nuclei count vs DMSO), 5 days (fraction); higher = more cells survive
Method in brief: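 On vehicle-anchored 1536-well plates, lung cancer cell lines held overnight at 37 °C were pinned with five library-drug doses (not always all listed) spaced by √10. With no medium change over 5 days, they were then fixed, permeabilised and Hoechst-stained in one step and imaged at 4×. MetaXpress counted nuclei, and viability is the median across plates of treated-well over vehicle-well nuclei. Acceptance needed control CV below 25% and at least one doubling.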

Cell Line | relative viability (0.08 µM) | relative viability (0.253 µM) | relative viability (0.8 µM) | relative viability (2.53 µM) | relative viability (8 µM)
201T | 0.996 | 1 | 0.997 | 0.989 | 0.995
A-427 | 0.994 | 0.919 | 1.1 | 0.815 | 1.04
ABC-1 | 0.799 | 1.06 | 1.08 | 0.851 | 0.901
BEN | 0.834 | 0.959 | 1.04 | – | 0.957
CAL-12T | 0.962 | 1.02 | 1.18 | 1.03 | 1.07
COR-L23 | 1.05 | 1.12 | 0.949 | 1.06 | 1.01
COR-L 105 | 0.985 | 0.943 | 1 | 0.881 | 1.02
Calu-6 | 1.03 | 1.01 | 1.07 | 0.993 | 1.03
ChaGo-K-1 | 1.01 | 1.02 | 1.06 | 0.921 | 1
EBC-1 | 1.07 | 1.04 | 0.985 | 1 | 1
EKVX | 0.986 | 1.03 | 0.938 | 0.799 | 0.969
EMC-BAC-2 | – | 1.01 | 1.01 | 0.775 | 1.05
EPLC-272H | 0.774 | 1.15 | 1.12 | 0.807 | 0.927
H3255 | 0.956 | 1.03 | 1.04 | 0.826 | 0.97
HARA | 1.04 | 1.15 | 1.02 | 0.942 | 1.17
HCC-15 | 1.09 | 1.06 | 1.1 | 0.808 | 1.05
HCC-44 | 0.955 | 1.01 | 0.995 | 1.04 | 0.959
HCC-78 | 0.876 | 1.04 | 1.05 | 0.982 | 1.02
HCC-366 | 1.01 | 1.08 | 1.01 | 0.96 | 1.02
HCC-827 | 1.06 | 1.06 | 1.01 | 1.07 | 1.02

Cell Line | relative viability (0.08 µM) | relative viability (0.253 µM) | relative viability (0.8 µM) | relative viability (2.53 µM) | relative viability (8 µM)
HOP-62 | 1.03 | 1.01 | 0.994 | 0.984 | 1.03
IA-LM | 0.921 | 0.954 | 1.15 | 1.02 | 1.04
LC-2-ad | 1.02 | 1.05 | 1.1 | 0.96 | 0.996
LCLC-97TM1 | 0.959 | 0.983 | 1.03 | 0.758 | 0.966
LCLC-103H | 1.05 | 1.08 | 0.963 | 0.861 | 0.941
LK-2 | 0.945 | 1.02 | 1.08 | – | 1.16
LOU-NH91 | 0.953 | 0.992 | 1.04 | 0.923 | 0.961
LU99A | 0.975 | 0.928 | 0.987 | 0.839 | 0.931
LXF-289 | 0.994 | 1.01 | 1.02 | 1.13 | 0.984
NCI-H23 | 0.927 | 1.11 | 0.9 | 0.796 | 1.16
NCI-H322M | 0.896 | 0.927 | 1.07 | 0.922 | 0.965
NCI-H358 | 1.1 | 0.911 | 0.95 | 0.794 | 0.916
NCI-H441 | 1.08 | 1.03 | 1.04 | 0.786 | 1.16
NCI-H460 | 0.987 | 0.99 | 0.998 | 0.977 | 0.992
NCI-H520 | 1.11 | 1.04 | 1.09 | 0.819 | 1.04
NCI-H522 | 0.972 | 0.965 | 0.909 | 0.865 | 0.962
NCI-H596 | 0.96 | 0.954 | 0.87 | 0.724 | 1.12
NCI-H647 | 0.873 | 0.979 | 1.01 | 0.909 | 1.07
NCI-H650 | 0.873 | 1.04 | 0.937 | 0.843 | 1.06

Reference: the supplement of paper PMC10307832
